{
  "source": "patent US10494611B2",
  "about": "“Compositions comprising a mitofusin inhibitor for promoting cell reprogramming and a use thereof” (KOREA RESEARCH INSTITUTE OF BIOSCIENCE AND BIOTECHNOLOGY, priority 2014, dated 2019)",
  "key": {"[1]": {"tested_on": "MEFs", "assay": "Reprogramming of MEFs by OSKM transduction, AP staining", "format": "cell-based, mouse"}, "[2]": {"tested_on": "human Mfn1 promoter", "assay": "Human Mfn1 promoter reporter assay (luciferase) in 293T cells, REDOX library screening", "format": "cell-based", "settings": "293T cells with human Mfn1 promoter reporter, 10 μM, 48 hours", "protocol": "(§1) In one specific embodiment of the present invention, mouse and human Mfn1 promoter reporter (Genecopoeia) cells were prepared using Mfn1−/−MEFs and 293T cells, respectively, and a Screen-Well™ REDOX library containing the 84 compounds was treated at a concentration of 10 μM by for 48 hours.\n(§2) Mfn1-KO MEFs were stably transfected with an Mfn1 promoter reporter construct (Genecopoeia) cells of mouse and human were produced using Mfn1−/− MEFs and 293T cells (human embryonic renal cells) and then treated with the Screen-Well™ REDOX library, containing 84 compounds, for 48 hours in a concentration of 10 nM to 10 μM. Mfn1 promoter activity was measured in the culture supernatants with the Secrete-Pair™ Dual Luminescence and Gaussia Luciferase Assay Kits (Genecopoeia) using a SpectraMax microplate reader."}, "[3]": {"tested_on": "MEFs", "assay": "Mitochondrial morphology of reprogramming cultures (Mito-EYFP)", "format": "cell-based, mouse", "settings": "OSKM, 50 μM Mdivi1, Mito-EYFP, D7", "protocol": "Cells were fixed in 4% paraformaldehyde for 10 minutes at room temperature (RT) and then in MeOH for 15 minutes at −20° C., after which their permeability was increased with 0.3% Triton X-100 in PBS for 30 min and blocked with 4% BSA for 2 hours at RT. The samples were stained with the anti-Tom20 antibody diluted in a blocking buffer at 4° C. overnight. After washing, the cells were stained with Alexa 488-conjugated secondary antibodies (Invitrogen) for 45 minutes at RT. The nuclei were counterstained with 10 μg/ml DAPI. For live cell imaging, the cells were incubated with 200 nM MitoTracker® Red CMXRos (Invitrogen) for 30 minutes at 37° C. Florescent images were analyzed under an IX51 microscope (Olympus) or an Axiovert 200M microscope (Carl Zeiss)."}, "[4]": {"tested_on": "mouse Mfn1 promoter", "assay": "Mouse Mfn1 promoter reporter assay (luciferase), REDOX library screening", "format": "cell-based", "settings": "Mfn1−/− MEFs carrying Mfn1 promoter reporter, 10 μM, 48 hours", "protocol": "as §1, §2"}},
  "note": "“Also recorded” adds a separate entry of the source.",
  "data": [
    {"smiles": "O=CC[C@@H](O)[C@H](O)[C@H](O)CO", "note": "[2-DG, 2-deoxy-D-glucose]", "values": [
      {"measurement": "cellular reprogramming (AP+ colonies) with glycolysis inhibitor", "setting": "[1]; OSKM reprogramming of MEFs, D11", "result": "substantially decreased"}
    ]},
    {"smiles": "CC1=C(C)C(=O)C(CC[C@](C)(O)CCC[C@H](C)CCC[C@H](C)CCCC(C)C)=C(C)C1=O", "note": "[D-α-tocopheryl quinone]", "values": [
      {"measurement": "human Mfn1 promoter activity (relative luciferase activity)", "setting": "[2]", "result": "down-regulated; also recorded: best inhibit"}
    ]},
    {"smiles": "COc1cc(-n2c(=S)[nH]c3ccccc3c2=O)c(Cl)cc1Cl", "note": "[Mdivi1]", "values": [
      {"measurement": "higher reprogramming efficiency of Mfn1−/− and Mfn2−/− MEFs", "setting": "[1]; OSKM, 50 μM Mdivi1, AP+ colonies D11", "result": "blocked"},
      {"measurement": "fragmented mitochondrial morphology of Mfn1−/− and Mfn2−/− MEFs", "setting": "[3]", "result": "blocked"}
    ]},
    {"smiles": "Cc1coc2c1C(=O)C(=O)c1c-2ccc2c1CCCC2(C)C", "note": "[Tanshinone IIA]", "values": [
      {"measurement": "mouse Mfn1 promoter activity (relative luciferase activity)", "setting": "[4]", "result": "top 2 upregulated"}
    ]},
    {"smiles": "C[C@]12C=CC(=O)C=C1CC[C@@H]1C2=CC[C@]2(C)[C@@H](C(=O)CN3CCN(c4cc(N5CCCC5)nc(N5CCCC5)n4)CC3)CC[C@@H]12.O=C(O)/C=C\\C(=O)O", "note": "[U74389G maleate, 21-[4-(2,6-di-1-pyrrolidinyl-4-pyrimidinyl)-1-piperazinyl]pregna-1,4,9[11]-triene-3,20-dione maleate]", "values": [
      {"measurement": "mouse Mfn1 promoter activity (relative luciferase activity)", "setting": "[4]; listed as 21-[4-(2,6-di-1-pyrrolidinyl-4-pyrimidinyl)-1-piperazinyl]pregna-1,4,9[11]-trien, maleate", "result": "top 3 downregulated"},
      {"measurement": "mouse Mfn1 promoter activity (relative luciferase activity)", "setting": "[4]; maleate", "result": "down-regulated; also recorded: inhibited"},
      {"measurement": "human Mfn1 promoter activity (relative luciferase activity)", "setting": "[2]; maleate", "result": "down-regulated; also recorded: best inhibit"}
    ]},
    {"smiles": "CN(C/C=C/C#CC(C)(C)C)Cc1cccc2ccccc12.Cl", "note": "[erbinafine.HCl]", "values": [
      {"measurement": "mouse Mfn1 promoter activity (relative luciferase activity)", "setting": "[4]", "result": "top 2 upregulated"}
    ]},
    {"smiles": "CCCCCCCCCCCCCCCC(=O)OC/C=C(C)/C=C/C=C(C)/C=C/C1=C(C)CCCC1(C)C", "note": "[retinyl palmitate]", "values": [
      {"measurement": "human Mfn1 promoter activity (relative luciferase activity)", "setting": "[2]", "result": "down-regulated; also recorded: best inhibit"}
    ]},
    {"smiles": "Cc1nc(C)c(C)nc1C", "note": "[tetramethylpyrazine]", "values": [
      {"measurement": "mouse Mfn1 promoter activity (relative luciferase activity)", "setting": "[4]", "result": "top 3 downregulated"},
      {"measurement": "mouse Mfn1 promoter activity (relative luciferase activity)", "setting": "[4]; listed as tetramethyl pyrazine", "result": "down-regulated"}
    ]}
  ]
}
